Data as given in patent publication US7985774B2, “Use of 3,5-seco-4-nor-cholestane derivatives for obtaining a cytoprotective drug” (Trophos, priority 2006, dated 2011).

Columns and labels:
C57BL6 mice = assay: In vivo model of myocardium infarction (coronary occlusion-reperfusion)
Protocol: The purpose of this experiment is to study in vivo the cardioprotective properties of the compounds, 3,5-seco-4-nor-cholestan-5-one oxime-3-ol and 3,5-seco-4-nor-cholestan-5-one oxime-3-N,N-dimethylglycine ester, in a murine coronary occlusion-reperfusion model.
The compounds to be tested are administered intravenously in mice, 5 minutes before reperfusion of the myocardium ischemiated beforehand. As controls, carriers of the compounds beta-cyclodextrin (hereafter called βCD) and water, respectively, are administered under the same conditions as for the compounds.
In order to determine the effect of the tested compounds, the size of the infarction is measured after 24 hour reperfusion.
6-8 week old male C57BL6 mice are anaesthetized with sodium pentobarbital (50 mg/kg i.p.) and are ventilated after intubation with an O2/CO2 (95%/5%) mixture throughout the experiment. The surface electrocardiogram (ECG) is recorded and viewed on an oscilloscope all along surgery. Under strict asepsis conditions, the jugular vein is catheterized for intravenous administration of the compounds. A left lateral thoracotomy is performed and after pericardiotomy, a major branch of the left coronary artery is localized in the latero-posterior region of the left ventricle. A prolene no. 8 suture is positioned around this artery so as to form a mobile loop for making a temporary coronary occlusion.
All the mice were subject to a 30 minute temporary coronary occlusion. Ischemia of the myocardium region is confirmed by cyanosis of the myocardium surface and a deviation of the ST segment of the electrocardiogram.
Each of the compounds (treated group, n=10) or its solvent (control group, n=10) was administered as a bolus intravenously, 5 min before lifting the 30 minutes of coronary occlusion.
3,5-seco-4-nor-cholestan-5-one oxime-3-ol, dissolved beforehand to a final concentration of 0.46 mg/ml in a 30% βCD solution in phosphate buffer prepared by saturation followed by centrifugation, is administered at a dosage of 1 mg/kg.
3,5-seco-4-nor-cholestan-5-one oxime-3-N,N-dimethylglycine ester, dissolved beforehand to a final concentration of 1.56 mg/ml in sterile water by stirring and sonication, is administered at a dosage of 3.9 mg/kg.
The same volume of carrier is administered in the corresponding control groups.
Twenty four hours after the end of coronary occlusion, the mice are re-anaesthetized with sodium pentobarbital (50 mg/kg i.p.) and heparin is administered intravenously (Choay© heparin 1,000 IU/kg). A ligature of the coronary artery is achieved at the same location having been subject to the first occlusion 24 h previously. The mice are then euthanized with a lethal saturated dose of potassium chloride and their heart is rapidly excised and then mounted through the aorta artery on a retrograde perfusion system of the Langendorff type.
A 5% Evans blue solution is perfused retrogradely so that the healthy myocardium is colored in blue; the area made ischemic during the coronary occlusion, or <<area of risk AR>> remaining uncolored by default.
The left ventricle is then cut out into 5 slices with equal thicknesses (1 mm) by means of a slicer specially designed for hearts of mice (Les Isolants de Paris, Palaiseau), which are then weighed.
These slices are incubated in a 1% triphenyltetrazolium chloride solution (TTC, Sigma, Poole, UK) at pH 7.4 for 20 min at 37° C. and then set in 4% formol. TTC has the property of coloring the non-infarcted myocardium in red, and so showing the infarcted areas in white. Each heart slice is placed under a stereo microscope for taking a high definition digital photograph.
Quantification of infarction and the area of risk is carried out by planimetry (Scion Image, Scion, Frederick Md., USA) and referred to the weight of each slice.
The area of risk (non-blue area) is expressed as a percentage of the weight of the left ventricle. The infarction sizes are expressed as a percentage of the weight of the area of risk. […]

[1] = test system: rabbit ventricular cardiomyocytes; assay: Annexin V marking of phosphatidylserine (apoptosis) after doxorubicin; format: cell-based; details: doxorubicin 1 μM alone, 3 hrs; control 100%
Protocol: (§1) Isolated ventricular cells are obtained from hearts of male New Zealand rabbits as described in A. d'Anglemont de Tassigny et al., Fund. Clin. Pharmacol, 18: 531-38, 2004. Briefly, the rabbits (2.0-2.5 kg) are anaesthetized with a pentobarbital solution (50 mg/kg) and they then receive heparin (200 IU/kg). The hearts are excised and immediately perfused, for 10-15 minutes by means of a Langendorff apparatus without recirculation with an oxygenated tyrode (calcium-free) isotonic solution (95%, 2-5% CO2) (in mM: NaCl 135, KCl 5.4, Na2PO4 0.33, MgCl2 1.0, HEPES 10, pH adjusted to 7.4 with 1N NaOH at 37° C., 280-300 mOsmol/kgH2O). Next, all the hearts are perfused for 3 minutes in the “recirculation” mode with the same calcium-free Tyrode solution (coronary flow rate, 10-15 mL/min) added with 1 mg/mL of type II collagenase and 0.28 mg/mL of XIV type protease. Finally, all the hearts are perfused in a mode without any recirculation with the same solution of Tyrode supplemented with 0.3 mM of CaCl2 for 10 min. The left ventricle is removed and cut into small pieces; cell dissociation is achieved by mild mechanical stirring. Extracellular calcium is added by increments every 15 minutes, in order to reach a physiological concentration of 1.0 mM. […]
Annexin V marking of phosphatidylserine was used as a quantitative method for measuring apoptosis by using the MiniMacs cell isolation kit (Miltenyi Biotec, Bergisch, Gladbach, Germany). […] The column is removed from the magnetic field, the cells exposing phosphatidylserine, magnetically retained, are eluted as a positive fraction and counted with a Mallassez cell counter. […]
(§2) Apoptosis is induced in isolated cardiomyocytes by 3-8 hour exposure to 1 μM of doxorubicin added into an isotonic solution containing (in mM) NaCl 110, KCl 5.4, Na2PO4 0.33, NaHCO3 25, glucose 5, MgCl2 0.8, CaCl2 1, pH adjusted to 7.4. […] The contractility of cardiomyocytes was measured every hour during the 8 hrs of exposure to doxorubicin. […]

caspase-3 = assay: Caspase-3 activity (apoptosis) after doxorubicin; format: cell-based, rabbit; details: doxorubicin 1 μM alone, 8 hrs; control 19±9
Protocol: as §1
Caspase-3 activity is used as a quantitative method for measuring apoptosis. […] The fluorogenic substrate for measuring caspase-3 activity (DEVD) is marked with the fluorochrome, 7-amino-4-methyl coumarine (AMC), which produces […] fluorescence detectable in UV light at 360/460 nm for 210 min. […]
as §2

[2] = test system: rabbit ventricular cardiomyocytes; assay: Contractile dysfunction test induced by doxorubicin (sarcomer shortening); format: cell-based; details: doxorubicin 1 μM alone, after 4 hrs of exposure; control −19.49±2.06%
Protocol: A stock solution of 3,5-seco-4-nor-cholestan-5-one oxime-3-ol at a concentration of 10 mM in 100% DMSO was used.
The final concentration in DMSO was the same for all the experimental points, independently of the molecular concentrations used.
3,5-seco-4-nor-cholestan-5-one oxime-3-ol was tested at concentrations of 0.1 and 0.3 μM, diluted in a Tyrode solution (composition in mmol/L: NaCl 135, KCl 5.4, NaH2PO4 0.33, CaCl2 1.2, MgCl2 1.0, Hepes 10; pH adjusted to 7.4 with NaOH).
Isolated ventricular cells are obtained from hearts of male New Zealand rabbits as described in A. d'Anglemont de Tassigny et al., Fund. Clin. Pharmacol, 18: 531-38, 2004. Briefly, the rabbits (2.0-2.5 kg) are anaesthetized with a pentobarbital solution (50 mg/kg) and they then receive heparin (200 IU/kg). The hearts are excised and immediately perfused, for 10-15 minutes by means of a Langendorff apparatus without recirculation with an oxygenated tyrode (calcium-free) isotonic solution (95%, 2-5% CO2) (in mM: NaCl 135, KCl 5.4, Na2PO4 0.33, MgCl2 1.0, HEPES 10, pH adjusted to 7.4 with 1N NaOH at 37° C., 280-300 mOsmol/kgH2O). […]
The myocytes were selected for the study according to the following criterion: a rod-like aspect with very apparent striations and no intracellular vacuola, no spontaneous contraction when they are stimulated with 1 mM Ca^2+, and with constant rest length and contraction amplitude. The length of the sarcomers was measured by means of a video image analysis program and the data were acquired at a rate of 240 samples/s. […]
as §2

[3] = 3.9 mg/kg i.v. bolus in water 5 min before reperfusion, 30 min occlusion, 24 h reperfusion, mean±SEM

Row | SMILES | Area of risk (percentage of the weight of the left ventricle) (C57BL6 mice; [3]) | Infarction size (percentage of the weight of the area of risk) (C57BL6 mice; [3]) | Infarction size reduction (C57BL6 mice; 3.9 mg/kg i.v., versus carrier (water)) [%] | Apoptosis as % of change in annexin V marking [1] [%] | caspase-3 activity (caspase-3) [fmol/min] | shortening of the peak relatively to the base line [2] [%]
1 | CC(C)CCC[C@@H](C)[C@H]1CC[C@H]2[C@@H]3CCC(=NO)[C@](C)(CCCOC(=O)CN(C)C)[C@H]3CC[C@]12C [3,5-seco-4-nor-cholestan-5-one oxime-3-N,N-dimethylglycine ester] | 8 +/− 3% | 23 +/− 9% | 42.5 | – | – | –
2 | COc1cccc2c1C(=O)c1c(O)c3c(c(O)c1C2=O)C[C@@](O)(C(=O)CO)C[C@@H]3O[C@H]1C[C@H](N)[C@H](O)[C@H](C)O1 [doxorubicin, reference compound] | – | – | – | 320 | 120 ± 15 | −53.20±7.70
